Source: ChEMBL document CHEMBL5518172, “Discovery of hydroxamate as a promising scaffold dually inhibiting metallo- and serine-β-lactamases” (Eur J Med Chem, 2024)

Legend:
[1] = target: Metallo-beta-lactamase type 2 (Bacteria) (UniProt C7C422); assay: Inhibition of recombinant NDM-1 (unknown origin) expressed in Escherichia coli BL21 (DE3) cells using meropenem as substrate at 20 uM by spectrometric analysis relative to control
Escherichia coli [2] = assay: Synergistic antibacterial activity against Escherichia coli BL21 (DE3) harboring metallo-beta lactamase IMP-1 assessed as fold decrease in meropenem MIC at 64 microg/ml measured after 16 hrs by CLSI protocol based broth microdilution method; type: functional; conditions: dose 64 µg/ml
Bacteria [3] = assay: Inhibition of recombinant metallo-beta-lactamase L-1 (unknown origin) expressed in Escherichia coli BL21 (DE3) cells using cefazolin as substrate at 20 uM by spectrometric analysis relative to control
Bacteria [4] = assay: Inhibition of recombinant metallo-beta-lactamase ImiS (unknown origin) expressed in Escherichia coli BL21 (DE3) cells using meropenem as substrate at 20 uM by spectrometric analysis relative to control
Escherichia coli [5] = assay: Synergistic antibacterial activity against Escherichia coli BL21 (DE3) harboring serine beta lactamase KPC-2 assessed as meropenem MIC at 64 microg/ml measured after 16 hrs by CLSI protocol based broth microdilution method (reference value: 16 microg/ml); type: functional; conditions: dose 64 µg/ml
[6] = Inhibition of recombinant metallo-beta-lactamase IMP-1 (unknown origin) expressed in Escherichia coli BL21 (DE3) cells using meropenem as substrate by spectrometric analysis; set-up: species or system Bacteria
[7] = Inhibition of recombinant serine beta lactamase KPC-2 (unknown origin) expressed in Escherichia coli BL21 (DE3) cells using meropenem as substrate by spectrometric analysis; set-up: species or system Bacteria
Bacteria [8] = assay: Inhibition of recombinant metallo-beta-lactamase IMP-1 (unknown origin) expressed in Escherichia coli BL21 (DE3) cells using cefazolin as substrate at 20 uM by spectrometric analysis relative to control
Escherichia coli [9] = assay: Synergistic antibacterial activity against Escherichia coli BL21 (DE3) harboring serine beta lactamase OXA-48 assessed as meropenem MIC at 64 microg/ml measured after 16 hrs by CLSI protocol based broth microdilution method (reference value: 1 microg/ml); type: functional; conditions: dose 64 µg/ml
Escherichia coli [10] = assay: Synergistic antibacterial activity against Escherichia coli BL21 (DE3) harboring serine beta lactamase KPC-2 assessed as fold decrease in meropenem MIC at 64 microg/ml measured after 16 hrs by CLSI protocol based broth microdilution method; type: functional; conditions: dose 64 µg/ml
[11] = Inhibition of recombinant serine beta lactamase OXA-48 (unknown origin) expressed in Escherichia coli BL21 (DE3) cells using meropenem as substrate by spectrometric analysis; set-up: species or system Bacteria
Escherichia coli [12] = assay: Synergistic antibacterial activity against Escherichia coli BL21 (DE3) harboring metallo-beta-lactamase IMP-1 assessed as meropenem MIC at 64 microg/ml measured after 16 hrs by CLSI protocol based broth microdilution method (reference value: 64 microg/ml); type: functional; conditions: dose 64 µg/ml
Escherichia coli [13] = assay: Synergistic antibacterial activity against Escherichia coli BL21 (DE3) harboring NDM-1 assessed as meropenem MIC at 64 microg/ml measured after 16 hrs by CLSI protocol based broth microdilution method (reference value: 256 microg/ml); type: functional; conditions: dose 64 µg/ml
Escherichia coli [14] = assay: Synergistic antibacterial activity against Escherichia coli BL21 (DE3) harboring NDM-1 assessed as fold decrease in meropenem MIC at 64 microg/ml measured after 16 hrs by CLSI protocol based broth microdilution method; type: functional; conditions: dose 64 µg/ml
[15] = target: Metallo-beta-lactamase type 2 (Bacteria, UniProt C7C422); assay: Inhibition of recombinant NDM-1 (unknown origin) expressed in Escherichia coli BL21 (DE3) cells using meropenem as substrate by spectrometric analysis
Escherichia coli [16] = assay: Synergistic antibacterial activity against Escherichia coli BL21 (DE3) harboring serine beta lactamase OXA-48 assessed as fold decrease in meropenem MIC at 64 microg/ml measured after 16 hrs by CLSI protocol based broth microdilution method; type: functional; conditions: dose 64 µg/ml
Bacteria [17] = assay: Inhibition of recombinant serine beta lactamase OXA-48 (unknown origin) expressed in Escherichia coli BL21 (DE3) cells using meropenem as substrate at 20 uM by spectrometric analysis relative to control
Bacteria [18] = assay: Inhibition of recombinant serine beta lactamase KPC-2 (unknown origin) expressed in Escherichia coli BL21 (DE3) cells using meropenem as substrate at 20 uM by spectrometric analysis relative to control

Sequence of Metallo-beta-lactamase type 2 (C7C422 whole entry): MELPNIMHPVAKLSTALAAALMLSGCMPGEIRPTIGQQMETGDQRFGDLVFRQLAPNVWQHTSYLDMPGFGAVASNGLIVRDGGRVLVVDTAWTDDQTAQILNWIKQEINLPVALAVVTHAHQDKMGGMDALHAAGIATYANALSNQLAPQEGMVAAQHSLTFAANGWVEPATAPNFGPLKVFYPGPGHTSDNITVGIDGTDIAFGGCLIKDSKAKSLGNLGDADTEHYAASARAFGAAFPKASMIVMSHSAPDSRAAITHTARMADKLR
Sequence of Metallo-beta-lactamase type 2 (Bacteria) (C7C422 whole entry): as above

Structure (SMILES) | inhibition [1] | fold change (FC) (Escherichia coli [2]) | inhibition (Bacteria [3]) | inhibition (Bacteria [4]) | MIC (Escherichia coli [5]) | IC50 [6] | IC50 [7] | inhibition (Bacteria [8]) | MIC (Escherichia coli [9]) | fold change (FC) (Escherichia coli [10]) | IC50 [11] | MIC (Escherichia coli [12]) | MIC (Escherichia coli [13]) | fold change (FC) (Escherichia coli [14]) | IC50 [15] | fold change (FC) (Escherichia coli [16]) | inhibition (Bacteria [17]) | inhibition (Bacteria [18])
CCCCCOC(=O)ONC(=O)CCc1ccccc1 | > 90% | 2 | < 42% | < 42% | 8 µg/mL | 1.73 µM | 4.51 µM | > 90% | 1 µg/mL | 2 | 9.08 µM | 16 µg/mL | 64 µg/mL | 2 | 4.72 µM | – | – | –
O=C(OCc1ccccc1)ONC(=O)C1CCCCC1 | – | – | – | – | 16 µg/mL | 27.2 µM | 41.9 µM | – | 1 µg/mL | – | 6.71 µM | 64 µg/mL | 128 µg/mL | – | 41.1 µM | – | – | –
CCOC(=O)ONC(=O)CCc1ccccc1 | – | 2 | – | – | 8 µg/mL | 1.83 µM | 7.7 µM | – | 0.5 µg/mL | 2 | 8.5 µM | 32 µg/mL | 128 µg/mL | 2 | 5.03 µM | 2 | – | –
CCOC(=O)ONC(=O)C(CC)c1ccccc1 (centres undefined) | – | 2 | – | – | 16 µg/mL | 32.2 µM | 28 µM | – | 1 µg/mL | – | 32.7 µM | 32 µg/mL | 128 µg/mL | 2 | 37.4 µM | – | – | –
CCOC(=O)ONC(=O)CCC1CCCCC1 | – | 2 | – | – | 16 µg/mL | 3.03 µM | 1.29 µM | – | 0.063 µg/mL | – | 3.45 µM | 32 µg/mL | 64 µg/mL | 2 | 3.27 µM | 16 | > 90% | > 90%
O=C(OCc1ccccc1)ONC(=O)c1ccccc1 | > 90% | – | < 42% | < 42% | 16 µg/mL | 2.38 µM | > 50 µM | > 90% | 1 µg/mL | – | > 50 µM | 64 µg/mL | 128 µg/mL | – | 2.62 µM | – | – | –
CC(=O)NOC(=O)OCc1ccccc1 | > 90% | 2 | < 42% | < 42% | 16 µg/mL | 2.42 µM | > 50 µM | > 90% | 1 µg/mL | – | > 50 µM | 32 µg/mL | 64 µg/mL | 2 | 3.21 µM | – | – | –
CCOC(=O)ONC(=O)CC(c1ccccc1)c1ccccc1 | > 90% | – | < 42% | < 42% | 8 µg/mL | 1.64 µM | 13.1 µM | > 90% | 1 µg/mL | 2 | 10 µM | 64 µg/mL | 128 µg/mL | – | 2.24 µM | – | – | –
O=C(CCc1ccccc1)NOC(=O)OCc1ccccc1 | > 90% | 2 | < 42% | < 42% | 8 µg/mL | 1.69 µM | 2.66 µM | > 90% | 1 µg/mL | 2 | 3.09 µM | 32 µg/mL | 64 µg/mL | 2 | 2.18 µM | – | > 90% | > 90%
CCCCCOC(=O)ONC(=O)C(CC)c1ccccc1 (centres undefined) | – | 2 | – | – | 8 µg/mL | 23 µM | 17.5 µM | – | 1 µg/mL | 2 | 22.3 µM | 32 µg/mL | 128 µg/mL | 2 | 35.3 µM | – | – | –
CC(C)COC(=O)ONC(=O)CCCc1ccccc1 | > 90% | 2 | < 42% | < 42% | 8 µg/mL | 0.85 µM | 1.47 µM | > 90% | 0.5 µg/mL | 2 | 1.03 µM | 32 µg/mL | 64 µg/mL | 2 | 1.87 µM | 2 | > 90% | > 90%
O=C(CCC1CCCCC1)NOC(=O)OCc1ccccc1 | – | 2 | – | – | 16 µg/mL | 6.48 µM | 0.6 µM | – | 0.5 µg/mL | – | 1.99 µM | 32 µg/mL | 64 µg/mL | 2 | 1.27 µM | 2 | > 90% | > 90%
O=C(CC(c1ccccc1)c1ccccc1)NOC(=O)OCc1ccccc1 | > 90% | – | < 42% | < 42% | 8 µg/mL | 0.65 µM | 1.96 µM | > 90% | 0.5 µg/mL | 2 | 5.45 µM | 64 µg/mL | 64 µg/mL | – | 0.84 µM | 2 | – | –
CC(C)COC(=O)ONC(=O)CCc1ccccc1 | – | 2 | – | – | 8 µg/mL | 12.4 µM | 4.56 µM | – | 1 µg/mL | 2 | 2.74 µM | 32 µg/mL | 128 µg/mL | 2 | 6.01 µM | – | > 90% | > 90%
CCOC(=O)ONC(=O)CCCc1ccccc1 | > 90% | 2 | < 42% | < 42% | 4 µg/mL | 2.89 µM | 0.98 µM | > 90% | 0.5 µg/mL | 2 | 2.88 µM | 16 µg/mL | 64 µg/mL | 2 | 0.99 µM | 2 | > 90% | > 90%
CCCCCOC(=O)ONC(=O)CCCc1ccccc1 | > 90% | 2 | < 42% | < 42% | 8 µg/mL | 0.85 µM | 1.47 µM | > 90% | 0.5 µg/mL | 2 | 1.03 µM | 16 µg/mL | 64 µg/mL | 2 | 1.87 µM | 2 | > 90% | > 90%
